Values after ≈ are worked out from the molar mass of the structure shown.
Columns and labels:
[1] = tested on: HCT-116 colon carcinoma cells (ACC-581); test: Cytotoxicity (MTT) assay, antiproliferative activity; type: cell-based; details: Homo sapiens, 120 h, HCT-116, 5 d incubation
Protocol: (§1) Half maximal inhibitory concentrations (IC50) in μg/ml of disciformycin A (1) and disciformycin B (2) for inhibiting the proliferative activity of human HCT-116 colon carcinoma cells, mouse fibroblast cells L929, and Chinese hamster ovary CHO-K1 cells were determined. Cells were seeded at 6×10^3 cells per well of 96-well plates (Corning CellBind®) in complete medium (180 μl) and directly treated with disciformycin dissolved in DMSO in serial dilution. The compound was tested in duplicate, as well as the internal solvent control. After 5 d incubation, 5 mg/ml MTT in PBS (20 μL) was added per well and it was further incubated for 2 h at 37° C. The medium was then discarded and cells were washed with PBS (100 μl) before adding 2-propanol/10N HCl (250:1, v/v; 100 μl) in order to dissolve formazan granules. The absorbance at 570 nm was measured using a microplate reader (EL808, Bio-Tek Instruments Inc.). The amount of formazan, i.e. relative absorption, is thereby proportional to the number of actively proliferating cells.

[2] = tested on: Mouse fibroblast cells L929 (ACC-2); test: as above; type: cell-based; details: 120 h, L929, 5 d incubation
Protocol: as §1

[3] = tested on: leukemic Mono Mac 6 cells; test: MTT assay, cytotoxic activity; type: cell-based, human; details: incubation 24 or 48 hours
Protocol: (§2) The cytotoxic activity of gulmirecin A (3) and gulmirecin B (4) against human cells was evaluated in the well-established MTT assay using primary monocytes from human peripheral blood as well as transformed lung epithelial cell A-549 cell and leukemic Mono Mac 6 cells. Furthermore, 3 and 4 were tested against K-562, HUVEC, and HeLa cells.
(§3) The human monocytic cell line Mono Mac 6 was cultured in RPMI 1640 medium supplemented with FCS (10%, v/v), penicillin (100 U/ml), streptomycin (100 μg/ml), insulin (10 μg/ml), oxaloacetic acid (1 mM), sodium pyruvate (1 mM), and 1× non-essential amino acids at 37° C. and 5% CO2. A-549 cells (DSM ACC-107) were cultured in DMEM high glucose (4.5 g/l) medium supplemented with FCS (10% v/v), penicillin (100 U/ml) and streptomycin (100 μg/ml) at 37° C. in a 5% CO2 incubator. K-562 (DSM ACC 10) and HeLa cells (DSM ACC 57) were grown in RPMI 1640, whereas cells of HUVEC (ATCC CRL-1730) were cultured in DMEM medium. The respective media were supplemented with ultraglutamine 1 (10 ml/l), gentamicin sulfate (500 μl/l), and FCS (10% v/v).
Cells (3×10^5 Mono Mac 6, 1×10^5 A-549 cells, or 2×10^6 monocytes per well) were seeded in a 96-well plate in the respective medium (100 μl/well). Monocytes were allowed to adhere for 1.5 hours (37° C., 5% CO2) prior to treatment. […] Then, 20 μl of thiazolyl blue tetrazolium bromide (MTT, 5 mg/ml PBS) were added, and the incubation was continued at 37° C., 5% CO2 until blue staining of the vehicle control. Formazan formation was stopped by adding 100 μl of lysis buffer (SDS, 10%, w/v in 20 mM HCl) and samples were shaken overnight. Absorbance of each well was measured at 570 nm in a Multiskan™ microplate spectrophotometer (Thermo Scientific).

[4] = tested on: Staphylococcus auricularis DSM 20609; test: Agar diffusion assay; type: cell-based; details: DSM20609, 50 μL of 0.5 mg in 1 mL methanol per 7 mm hole, n.a. = no activity observed, read-out: diameter of inhibition zone
Protocol: (§4) Antimicrobial activities of the gulmirecins were determined in a primary screen against Bacillus subtilis ATCC 6633, Staphylococcus aureus SG511, Staphylococcus auricularis DSM 20609, Mycobacterium vaccae IMET 10670, Pseudomonas aeruginosa K799/61, Escherichia coli SG458, Sporobolomyces salmonicolor SBUG 549, Candida albicans ATCC14053 and Penicillium notatum JP 36. To this end, holes with 7 mm diameter were aseptically punched in the respective agar medium. Subsequently, the agar plates were inoculated with the test organisms. 0.5 mg of every test compound was dissolved in 1 mL of methanol, and 50 μL of this solution was transferred to a single hole. Ciprofloxacin and amphotericin B served as positive controls. After evaporation of the solvent, the agar plates were incubated depending on the growth conditions of the test organisms. […] The test results are shown in Table 6 below, wherein the given values represent the diameters of the respective inhibition zone in the agar diffusion assay.

[5] = tested on: Staphylococcus aureus SG511; test: Agar diffusion assay; type: cell-based; details: 50 μL of 0.5 mg in 1 mL methanol per 7 mm hole, n.a. = no activity observed, read-out: diameter of inhibition zone
Protocol: as §4

[6] = tested on: HeLa cells; test: Cytotoxic effect (methylene blue staining); type: cell-based, human; details: at a concentration of 100 μM
Protocol: as §3
(§5) The test substances were dissolved in methanol before being diluted in DMEM. The adherent cells were harvested at the logarithmic growth phase after soft trypsinization using 0.25% trypsin in PBS containing 0.02% EDTA. For each experiment, approximately 10,000 cells were seeded with 0.1 ml culture medium per well of the 96-well microplates. […] In case of K-562 cells, the number of viable cells in every well was determined using the CellTiter-Blue1 assay. […] The optical densities were measured at 660 nm in a SUNRISE microplate reader (TECAN).

[7] = tested on: transformed lung epithelial A-549 cells; test: MTT assay, cytotoxic activity; type: cell-based, human; details: incubation 24 or 48 hours
Protocol: as §2, §3
Cells (3×10^5 Mono Mac 6, 1×10^5 A-549 cells, or 2×10^6 monocytes per well) were seeded in a 96-well plate in the respective medium (100 μl/well). Monocytes were allowed to adhere for 1.5 hours (37° C., 5% CO2) prior to treatment. Test compounds (0.3% DMSO as vehicle) were added to each well and samples were incubated for 48 hrs. Then, 20 μl of thiazolyl blue tetrazolium bromide (MTT, 5 mg/ml PBS) were added, and the incubation was continued at 37° C., 5% CO2 until blue staining of the vehicle control. Formazan formation was stopped by adding 100 μl of lysis buffer (SDS, 10%, w/v in 20 mM HCl) and samples were shaken overnight. Absorbance of each well was measured at 570 nm in a Multiskan™ microplate spectrophotometer (Thermo Scientific).

[8] = tested on: K-562 cells; test: Antiproliferative effect (CellTiter-Blue); type: cell-based, human; details: K-562, at a concentration of 100 μM
Protocol: as §3, §5

Row | Structure (SMILES) | IC50 [1] | IC50 [2] | cell viability / cytotoxicity (MTT) [3] | zone of inhibition at 25 µg/hole [4] | zone of inhibition at 25 µg/hole [5] | inhibition of proliferation [6] | cell viability / cytotoxicity (MTT) [7] | inhibition of proliferation [8]
1 | C/C=C(/C)[C@H]1C/C=C(\C)[C@@H](O[C@H]2O[C@H](CO)[C@@H](O)[C@@H]2O)[C@H](OC(=O)CC(C)C)C(=O)C/C=C(/C)C(=O)O1 [Compound 1, disciformycin A] | 13 µg/mL (≈ 24.8 µM) | 29 µg/mL (≈ 55.3 µM) | – | – | – | – | – | –
2 | C/C=C(/C)[C@H]1C/C=C(\C)[C@@H](O[C@H]2O[C@H](CO)[C@@H](O)[C@@H]2O)[C@H](OC(=O)CC(C)C)C(=O)C[C@@H](O)[C@H](C)C(=O)O1 [Compound 3, gulmirecin A] | – | – | no reduction in cell viability at the concentrations required for antibacterial activity | 31 mm | 29 mm | did not inhibit | no reduction in cell viability at the concentrations required for antibacterial activity | did not inhibit
3 | C/C=C(/C)[C@H]1C/C=C(\C)[C@@H](O[C@H]2O[C@H](CO)[C@@H](O)[C@@H]2O)[C@H](O)C(=O)CC[C@H](C)C(=O)O1 [Compound 4, gulmirecin B] | – | – | no reduction in cell viability at the concentrations required for antibacterial activity | 19 mm | 17 mm | did not inhibit | no reduction in cell viability at the concentrations required for antibacterial activity | did not inhibit
